Reference: patent publication US12459951B2, “Compounds that interact with RAS superfamily proteins for treatment of cancers, inflammatory diseases, rasopathies, and fibrotic disease” (SHY Therapeutics, LLC, priority 2022, dated 2025)
Like-named read-outs stand apart in the source and are kept apart here.

Experiments:
[1] = tested on: Erk1/2 phosphorylation; experiment: Erk1/2 Phosphorylation Assay (western blot), Panc-1; format: cell-based, human; conditions: at 10 μM, * = activation
Summary of the method: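 KRas G12D Panc-1 cells were treated 6 h at 37° C with compound at 10 μM or serial dilutions for IC50 (0.3% DMSO). In method 1, cells were serum-starved overnight (0.5% FBS) and then given 1.5 ng/ml EGF for 15 min. In method 2, cells stayed in 10% FBS without stimulation. Lysate phospho-Erk1/2 (Thr202/Tyr204) was read by western blot.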

[2] = tested on: TNF-alpha; experiment: TNF-alpha Quantification Assay (ELISA), LPS-stimulated RAW 264.7; format: cell-based; conditions: Mus musculus, RAW264.7; at 10 μM; read-out: TNFα: % inh.
[3] = tested on: MiaPaca-2 (expressing KRAS G12C mutant); experiment: Proliferation Assay (Cell Viability Assay); format: cell-based; conditions: Homo sapiens, MIA PaCa-2
Summary of the method: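 MiaPaca-2 cells (KRAS G12C) were grown in DMEM-high glucose with 10% FBS, seeded at 2000–5000 cells/well and cultured overnight. Compounds were added at 10 μM final, or as serial dilutions for IC50, in 0.3% DMSO/10% FBS for 2–4 days at 37 °C, 5% CO2. Viability was measured with CellTiter 96 Aqueous One and % inhibition calculated.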

[4] = read-out: Proliferation in MiaPaca-2: IC50

Row | Structure (SMILES) | % inh of Erk1/2 phosphorylation in Panc-1 [1] | inhibition at 10 µM [2] [%] | IC50 [3, 4] [nM] | IC50 ([3]; Proliferation assay, MiaPaca-2, read-out: MiaPaca-2 IC50 (nM) Pancreatic) [nM]
1 | COc1ncncc1Nc1nc(-c2nccn2C)nn2cc(-c3ccn(C(C)C)n3)c(C)c12 [Compound 88, 6-(1-Isopropyl-1H-pyrazol-3-yl)-N-(4-methoxypyrimidin-5-yl)-5-methyl-2-(1-methyl-1H-imidazol-2-yl)pyrrolo[2,1-f][1,2,4]triazin-4-amine] | 0 (0% inhibition) | 1 to 24 | > 1000 | 
2 | COc1cccnc1Nc1nc(-c2nccn2C)nn2cc(-c3ccn(C(C)C)n3)c(C)c12 [Compound 89, 6-(1-Isopropyl-1H-pyrazol-3-yl)-N-(3-methoxypyridin-2-yl)-5-methyl-2-(1-methyl-1H-imidazol-2-yl)pyrrolo[2,1-f][1,2,4]triazin-4-amine] | D* (85-100% activation) | 25 to 49 | < 150 | 
3 | Cc1c(-c2ccn(C(C)C)n2)cn2nc(-c3nccn3C)nc(Nc3ncc(C4CC4)o3)c12 [Compound 90, 5-Cyclopropyl-N-(6-(1-isopropyl-1H-pyrazol-3-yl)-5-methyl-2-(1-methyl-1H-imidazol-2-yl)pyrrolo[2,1-f][1,2,4]triazin-4-yl)oxazol-2-amine] | D* (85-100% activation) | 1 to 24 | > 1000 | 
4 | Cc1c(-c2ccn(C(C)C)n2)cn2nc(-c3nccn3C)nc(Nc3cc4n(n3)CCO4)c12 [Compound 91, N-(6-(1-Isopropyl-1H-pyrazol-3-yl)-5-methyl-2-(1-methyl-1H-imidazol-2-yl)pyrrolo[2,1-f][1,2,4]triazin-4-yl)-2,3-dihydropyrazolo[5,1-b]oxazol-6-amine] | D* (85-100% activation) | 1 to 24 | < 150 | 10 to 50
5 | COCCO[C@H]1C[C@H](Nc2nc(-c3nccn3C)nn3cc(-c4ccn(C(C)C)n4)c(C)c23)C1 [Compound 92, 6-(1-Isopropyl-1H-pyrazol-3-yl)-N-((1r,3r)-3-(2-methoxyethoxy)cyclobutyl)-5-methyl-2-(1-methyl-1H-imidazol-2-yl)pyrrolo[2,1-f][1,2,4]triazin-4-amine] | A* (1-25% activation) | 1 to 24 | > 1000 | 
